# Values of other authors as cited in patent US20230390251A1, “METHODS OF TREATING RIBONUCLEOTIDE REDUCTASE-RELATED DISEASES WITH A RIBONUCLEOTIDE REDUCTASE INHIBITOR” (TAIHO PHARMACEUTICAL CO., LTD., priority 2020, published 2023).
# Assays:
# [1] = from the literature (NPL 10); off-target effect on Fe ion-containing proteins; cited from earlier work
# [2] = biological target: T1, Ribonucleotide reductase (RNR) (Homo sapiens, UniProt P23921+P31350); details: from the literature (NPL 7; PL 1); cited from earlier work
# T1 sequence (P23921 1-792): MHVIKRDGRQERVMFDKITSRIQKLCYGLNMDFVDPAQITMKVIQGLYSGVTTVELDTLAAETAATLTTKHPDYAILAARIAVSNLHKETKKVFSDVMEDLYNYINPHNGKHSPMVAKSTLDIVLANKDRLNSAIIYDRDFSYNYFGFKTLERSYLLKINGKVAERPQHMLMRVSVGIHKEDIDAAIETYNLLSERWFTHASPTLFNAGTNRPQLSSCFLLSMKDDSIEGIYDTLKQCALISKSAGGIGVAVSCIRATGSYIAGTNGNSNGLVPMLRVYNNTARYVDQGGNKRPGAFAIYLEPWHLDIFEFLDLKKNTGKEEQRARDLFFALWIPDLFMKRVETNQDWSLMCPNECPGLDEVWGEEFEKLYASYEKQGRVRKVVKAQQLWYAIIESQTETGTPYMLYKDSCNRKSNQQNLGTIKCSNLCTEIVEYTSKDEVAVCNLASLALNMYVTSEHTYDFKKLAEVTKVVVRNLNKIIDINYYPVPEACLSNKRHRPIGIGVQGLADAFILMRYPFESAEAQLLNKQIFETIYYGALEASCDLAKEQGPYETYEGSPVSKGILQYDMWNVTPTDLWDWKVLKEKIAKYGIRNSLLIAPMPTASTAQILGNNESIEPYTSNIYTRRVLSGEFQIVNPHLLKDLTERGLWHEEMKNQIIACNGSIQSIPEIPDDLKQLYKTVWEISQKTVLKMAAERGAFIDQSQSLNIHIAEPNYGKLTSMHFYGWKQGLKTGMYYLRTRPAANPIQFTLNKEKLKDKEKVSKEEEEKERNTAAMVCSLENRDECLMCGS
# T1 sequence (P31350 1-389): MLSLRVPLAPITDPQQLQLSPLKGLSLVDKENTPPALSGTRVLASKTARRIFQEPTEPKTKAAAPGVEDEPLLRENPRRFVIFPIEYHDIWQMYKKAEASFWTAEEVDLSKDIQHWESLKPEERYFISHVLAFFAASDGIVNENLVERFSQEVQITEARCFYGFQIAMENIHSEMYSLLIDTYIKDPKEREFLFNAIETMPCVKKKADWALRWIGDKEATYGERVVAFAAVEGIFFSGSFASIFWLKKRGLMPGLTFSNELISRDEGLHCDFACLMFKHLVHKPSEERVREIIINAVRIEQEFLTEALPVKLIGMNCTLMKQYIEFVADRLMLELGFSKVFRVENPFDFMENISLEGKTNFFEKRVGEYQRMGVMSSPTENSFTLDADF
Compound,side effects in clinical cases [1],RNR inhibitory activity [2]
"NC(=S)NN=Cc1ncccc1N [Compound 3-AP, 3-aminopyridine-2-carboxaldehyde thiosemicarbazone]","side effects such as hypoxia, dyspnea, methemoglobinemia",–
"NC(=O)NO [HU, hydroxyurea, reference compound]",–,weak
